A short description of series [1]: Rat brain disposition after oral gavage. Type of series: in vivo, male Sprague-Dawley rats. The settings on record: male, Sprague-Dawley, oral 5 mg/kg, 1 h, mean ± stdev; for Kp at 1 h / Kp uu at 1 h: n=3. The procedure: Brain disposition was evaluated in male Sprague-Dawley rats (n=3, standard body weight). Briefly, test compound was formulated as a simple suspension (0.5% HPMC in water) then administered by oral gavage (10 mg/kg, 10 mL/kg or 5 mg/kg, 10 mL/kg). At the designated time point (0.5 or 1 h post dose) rats were sacrificed and terminal blood and brain samples taken. Isolated plasma and brain homogenates were extracted by standard protein precipitation in acetonitrile, containing internal standard. Diluted extracts were analyzed by liquid-chromatography coupled with tandem mass spectrometry detection (LC-MS/MS) using a bioanalytical method. Concentrations of test compound in plasma and brain were quantified against matrix matched calibration standards. The total plasma and brain concentration time data are presented in Table 4 alongside the calculated brain Kp (total brain concentration:total plasma concentration ratio).
The total brain-to-plasma partition coefficient (brain Kp) is given by the ratio of the total brain concentration and total plasma concentration of the compound according to the equation below: […]
Based on the measured rat fuplasma and fubrain values and the brain Kp the unbound brain-to-plasma partition coefficient (brain Kp,uu for each compound was calculated. The Kp,uu parameter describes the extent of brain penetration for each compound, i.e. the parameter gives a direct quantitative description of how the blood-brain barrier (BBB) handles the compounds regarding passive transport and active influx/efflux. The brain Kp,uu is given by the equation below: […]

In series [2] the target is T1, LRRK2 WT (Homo sapiens (Human), UniProt Q5S007). The experiment in a line: LRRK2 wild-type LanthaScreen TR-FRET kinase activity assay. In kind it is biochemical. The settings on record: 1 nM kinase, 1.3 mM ATP, n≥2 tests. The procedure: (§1) LRRK2 kinase activity was measured using a LanthaScreen kinase activity assay available from Invitrogen (Life Technologies Corporation). […] The phosphorylated peptide is recognized by a terbium-labelled phospho-specific anti-LRRKtide antibody (pLRRKtide antibody), obtainable from Life Technologies Corporation) and, subsequently, the phosphorylated LRRKtide can be quantified by the extent of TR-FRET between the terbium donor and fluorescein acceptor.
T1 sequence (Q5S007 970-2527): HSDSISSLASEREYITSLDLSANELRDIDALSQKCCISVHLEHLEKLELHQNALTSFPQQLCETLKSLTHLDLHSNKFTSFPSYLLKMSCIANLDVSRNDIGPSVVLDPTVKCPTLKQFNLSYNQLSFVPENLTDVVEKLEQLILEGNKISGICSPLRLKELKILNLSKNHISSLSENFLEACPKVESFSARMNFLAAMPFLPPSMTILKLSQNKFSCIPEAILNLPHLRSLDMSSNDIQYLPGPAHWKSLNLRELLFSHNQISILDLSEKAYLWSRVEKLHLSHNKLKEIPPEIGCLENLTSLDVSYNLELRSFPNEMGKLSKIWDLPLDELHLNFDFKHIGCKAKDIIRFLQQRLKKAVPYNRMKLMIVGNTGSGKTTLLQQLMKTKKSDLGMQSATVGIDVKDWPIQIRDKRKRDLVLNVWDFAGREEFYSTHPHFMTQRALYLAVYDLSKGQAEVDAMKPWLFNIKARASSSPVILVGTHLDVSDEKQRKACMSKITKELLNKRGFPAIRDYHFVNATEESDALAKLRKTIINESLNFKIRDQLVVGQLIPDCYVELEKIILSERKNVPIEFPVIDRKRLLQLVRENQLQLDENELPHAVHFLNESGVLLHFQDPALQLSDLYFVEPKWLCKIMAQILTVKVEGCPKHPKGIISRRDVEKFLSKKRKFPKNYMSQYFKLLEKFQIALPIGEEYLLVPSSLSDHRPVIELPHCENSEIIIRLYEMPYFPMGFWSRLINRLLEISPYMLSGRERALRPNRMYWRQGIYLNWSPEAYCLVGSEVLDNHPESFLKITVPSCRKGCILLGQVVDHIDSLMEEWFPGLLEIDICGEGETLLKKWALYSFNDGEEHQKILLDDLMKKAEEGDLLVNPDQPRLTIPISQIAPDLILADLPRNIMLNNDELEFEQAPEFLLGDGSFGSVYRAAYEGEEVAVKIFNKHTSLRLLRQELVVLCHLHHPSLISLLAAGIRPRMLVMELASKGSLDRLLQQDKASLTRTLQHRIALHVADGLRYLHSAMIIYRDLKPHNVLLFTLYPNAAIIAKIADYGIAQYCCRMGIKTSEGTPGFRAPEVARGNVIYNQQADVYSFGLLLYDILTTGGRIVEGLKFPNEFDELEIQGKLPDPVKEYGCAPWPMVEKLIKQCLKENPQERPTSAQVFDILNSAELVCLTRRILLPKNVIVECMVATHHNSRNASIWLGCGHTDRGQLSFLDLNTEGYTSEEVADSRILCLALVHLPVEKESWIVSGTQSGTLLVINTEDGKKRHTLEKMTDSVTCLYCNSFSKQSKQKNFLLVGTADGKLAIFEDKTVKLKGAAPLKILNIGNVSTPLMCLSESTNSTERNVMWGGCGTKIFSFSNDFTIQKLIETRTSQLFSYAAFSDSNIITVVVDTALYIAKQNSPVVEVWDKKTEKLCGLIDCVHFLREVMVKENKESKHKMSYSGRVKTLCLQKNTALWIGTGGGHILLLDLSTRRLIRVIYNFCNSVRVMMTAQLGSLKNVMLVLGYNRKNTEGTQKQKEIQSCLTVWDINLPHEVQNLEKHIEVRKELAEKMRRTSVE
(§2) As discussed above, this mutation increases the kinase activity relative to the wild type. The kinase reactions were performed in a 20 μL volume in 384-well plates. The kinase reaction buffer consisted of 50 mM Tris pH 8.5, 0.01% BRIJ-35, 10 mM MgCl2, 1 mM EGTA, and 2 mM DTT.
(§3) The mixture was further incubated for 30 minutes at RT. TR-FRET was measured by excitation of the terbium-donor with 340 nm light and subsequent (delay time […]) measurement of terbium and fluorescein emission at 495 nm and 520 nm, respectively, over a time window of […]. The measurement was repeated 30 times for fluorescein and 30 times for terbium emission with a […] between repeats. TR-FRET measurements were performed on a Biotek Synergy plate. The TR-FRET signal was calculated as the emission-ratio at 520 nm over 495 nm.
(§4) Test compound potency (IC50) was estimated by nonlinear regression using the sigmoidal dose-response (variable slope) using Xlfit 4 (IDBS, Guildford, Surrey, UK, model 205). Were the IC50 could not be determined the % inhibition at the highest tested concentration is given by equation 1. Equation (1): y=(A+((B−A)/(1+((C/x)^D)))) (1)
(§5) where y is the normalized TR-TRET ratio measurement for a given concentration of test compound, x is the concentration of test compound, A is the estimated efficacy (% inhibition) at infinite compound dilution, and B is the maximal efficacy (% inhibition). C is the IC50 value and D is the Hill slope coefficient. IC50 estimates were obtained from independent experiment and the logarithmic average was calculated.

The target of series [3] is T1, LRRK2 WT. As to the kind of experiment: LRRK2 wild-type ADP-Glo kinase assay. Type of series: biochemical. The note with it: 0.5 nM kinase; 1.0 mM ATP; IC50=Ki,app+[E]/2; n≥2 tests; read-out: LRRK2 WT ADPGlo IC50. As to the method:
LRRK2 kinase activity was measured using an ADP-Glo kinase assay from Promega Corporation. The assay is a homogeneous luminescence-based assay that measures ADP formed from a kinase reaction. The ADP is converted into ATP, which is used to generate light in a luciferase reaction. The luminescence generated correlates with kinase activity.
The LRRK2 kinase was obtained from Invitrogen (Life Technologies Corporation) and comprises residue 970 to 2527 of the full length human wild-type LRRK2 kinase. The kinase reactions were performed in a 10 μL volume in 384-well plates. The kinase reaction buffer consisted of 50 mM Tris pH 8.5, 0.01% BRIJ-35, 10 mM MgCl2, 1 mM EGTA, and 2 mM DTT.
The reaction mixture (10 μl total volume) was incubated for 3 hours at room temperature (RT, ca. 25° C.), before the reaction was terminated by addition of 10 μl ADP-Glo reagent. The mixture was further incubated for 60 minutes at RT before addition of 20 μl Kinase detection reagent from the ADP-Glo assay kit. Luminescence signal was measure on a BMG Labtech Pherastar FSX multimode microplate reader. The signal integration time was 0.5 s.
Test compound potency (Ki,app) was estimated by nonlinear regression using the tight-binding fit model in GeneData Screener (GeneData AG). In cases where the Ki,app could not be determined, the % inhibition at the highest tested concentration is reported. The tight-binding fit model is given by euquation (2). […] Ki,app is the apparent dissociation constant of the inhibitor. The IC50 can be calculated as given by equation (3). Equation (3): IC50=Ki,app+[E]/2 (3) IC50 estimates were obtained from independent experiment and the logarithmic average was calculated.
(In general: ADP-Glo turns the ADP formed in a reaction into a luminescent signal.)

Series [4] can be described thus: Fraction unbound in rat plasma and brain homogenate by equilibrium dialysis. In kind it is in vitro ADME, male Sprague-Dawley rat. The settings on record: 1 μM, equilibrium dialysis 5 h at 37° C.; for fubrain (% free): rat brain homogenate; for fuplasma (% free): rat plasma. As to the method:
The fraction of unbound compound in male Sprague-Dawley rat plasma (fuplasma) and brain homogenate (fubrain) were determined by equilibrium dialysis using 96-well HTD-dialysis plates with dialysis membranes (molecular weight cut off 12-14 KDa). One side of the HTD-dialysis plate was loaded with matrix (plasma or brain homogenate) and the other side with buffer (100 mM sodium phosphate buffer, pH 7.4). Test compounds were dissolved in DMSO then spiked (5 μL of 0.2 mM) into blank (995 μL) plasma or diluted brain homogenate (1:4 ratio in phosphate buffer) giving a final nominal concentration 1 μM (≤0.5% DMSO). The matrices were loaded into respective chambers and equilibrated against phosphate buffer for 5 h at 37° C. (in a humidified air incubator with 5% CO2 with shaking). Samples from both chambers (buffer and plasma or brain homogenate) were aliquoted to fresh 96-well polypropylene plates then matrix matched using an equal volume of opposite blank matrix before extraction with cold solvent (3 volumes acetonitrile) containing an appropriate bioanalytical internal standard. After centrifugation (20 min, 3200 g, 4° C.) the supernatants were diluted with appropriate volumes of water and compound concentrations were quantified by LC/MS-MS against matrix matched calibration standards. The fuplasma and fubrain were calculated according to equation 4 below.
[formula] Where [F] is the compound concentration on the buffer (receiver) side of the membrane; [T] is the compound concentration on the plasma or brain (donor) side of the membrane; D is the matrix dilution factor which is determined as D=4 for brain matrix and D=1 for plasma matrix in these assays.

Series [5] in a line: Hepatic microsomal intrinsic clearance assay. The note with it: for CLint scaled at 1 μM: pooled liver microsomes, pH 7.4, liver microsomes 0.5 mg/mL, NADPH, 1 hour at 37° C., LLOQ 0.36 L/h/kg. Type of series: in vitro ADME. As to the method: Compounds (final concentration 1 μM, 1% organic) of the invention were incubated for 1 hour at 37° C., with shaking, in phosphate buffer (pH 7.4) containing commercially sourced pooled liver microsomes (final concentration 0.5 mg/mL). […] At designated time points (0, 5, 10, 20, 30 and 60 minutes) ice-cold acetonitrile containing internal standard (300 μL) was added to an incubation well to stop the reaction then mixed and centrifuged (3220 g for 20 minutes at 4° C.). Supernatant was diluted (1:4) with deionized water then analyzed by LC-MS/MS.
In general terms: Microsomes from liver hold many membrane-bound enzymes, among them those of drug oxidation.

The next series has as its target LRRK2 G2019S (Homo sapiens (Human), UniProt Q5S007, G2019S). The experiment in a line: LRRK2 G2019S LanthaScreen TR-FRET kinase activity assay. Type of series: biochemical. The note with it: 250 pM kinase, 1.3 mM ATP, n≥2 tests. As to the method:
as §1, §2, §3, §4, §5
Background: In TR-FRET formats the signal depends on donor and acceptor labels being close together.

The mark [6] stands for this setting: brain, n=3, read-out: Total brain concentration.
Where [7] appears, read: plasma, n=3, read-out: Total plasma concentration.

This note sets out measurements from patent US11958865B1, “Leucine-rich repeat kinase 2 (LRRK2) inhibitors” (H. Lundbeck A/S, priority 2022, dated 2024).

Broadly, the IC50 is the concentration that gives 50% inhibition. One may read the CLint scaled as the rate of metabolic loss divided by the concentration.

Read-outs that look alike come from different tables or passages of the source.

Chain of LRRK2 G2019S (Q5S007 970-2527 G2019S): as the sequence (Q5S007 970-2527) above, with G1050S counted along it

`Cc1c2c(nn1-c1cccnc1OCF)OCCCn1nc(Cl)c3cnc(nc31)N2` [Example 18, 8-Chloro-2-(2-(fluoromethoxy)pyridin-3-yl)-3-methyl-2,4,12,13-tetrahydro-11H-5,7-(azenometheno)dipyrazolo[3,4-b:5′,1′-g][1]oxa[4,6,8]triazacycloundecine] came in with a Kp at 1 h in series [1] (brain) of 2.8 ± 0.6. In series [1] (brain), the Kp uu at 1 h worked out at 1.04 ± 0.21. Also, the concentration at 1 h in series [1] (setting [6]) turned out to be 343 ± 54 ng/g; in series [1] (setting [7]), 122 ± 11 ng/mL. The IC50 at LRRK2 WT [2] worked out at 670 pM; on LRRK2 WT [3], 440 pM; on LRRK2 G2019S, 490 pM. Moreover, in series [4], the “fubrain (% free)” value is 4.7 % free. Moreover, in series [4], the “fuplasma (% free)” value is 12.8 % free. Also, in series [5], the CLint scaled at 1 μM is 11.2 mL/min/kg.
In series [1] (brain), `Cc1c2c(nn1-c1cccnc1OC(F)F)OCCCn1nc(Cl)c3cnc(nc31)N2` [Example 19, 8-Chloro-2-(2-(difluoromethoxy)pyridin-3-yl)-3-methyl-2,4,12,13-tetrahydro-11H-5,7-(azenometheno)dipyrazolo[3,4-b:5′,1′-g][1]oxa[4,6,8]triazacycloundecine] yielded a Kp at 1 h of 2.8 ± 0.5. The compound also showed a Kp uu at 1 h in series [1] (brain) of 0.87 ± 0.17. Moreover, the concentration at 1 h came to 48 ± 11 ng/g in series [1] (setting [6]) and 19 ± 8 ng/mL in series [1] (setting [7]). In addition, the IC50 worked out at 1100 pM at LRRK2 WT [2], 320 pM on LRRK2 WT [3] and 350 pM on LRRK2 G2019S. In series [4], the “fubrain (% free)” value was found to be 2.7 % free. Besides, the “fuplasma (% free)” value in series [4] is given as 8.6 % free. Further, in series [5] (based on liver microsomal CLint values of Table 6), the “Rate of metabolism classification (liver microsomal CLint)” value is “moderate to high rate of metabolism”. This compound showed a CLint scaled at 1 μM in series [5] of 33.8 mL/min/kg.
On to `Cc1c2c(nn1-c1cccnc1OC1CC1)OCCCn1nc(Cl)c3cnc(nc31)N2` [Example 16, 8-Chloro-2-(2-cyclopropoxypyridin-3-yl)-3-methyl-2,4,12,13-tetrahydro-11H-5,7-(azenometheno)dipyrazolo[3,4-b:5′,1′-g][1]oxa[4,6,8]triazacycloundecine], for which the Kp at 1 h in series [1] (brain) turned out to be 1.3 ± 0.2. In addition, the Kp uu at 1 h in series [1] (brain) turned out to be 0.32 ± 0.06. Further, the concentration at 1 h came to 141 ± 30 ng/g in series [1] (setting [6]) and 112 ± 18 ng/mL in series [1] (setting [7]). Besides, the IC50 on LRRK2 WT [2] amounted to 2100 pM; on LRRK2 WT [3], 570 pM; at LRRK2 G2019S it was 930 pM. Also, the “fubrain (% free)” value in series [4] was found to be 3.5 % free. In addition, the “fuplasma (% free)” value in series [4] is 13.9 % free. The CLint scaled at 1 μM in series [5] is 18.7 mL/min/kg.
`CCc1c2c(nn1-c1cccnc1C)OCCCn1nc(Cl)c3cnc(nc31)N2` [Example 8, 8-Chloro-3-ethyl-2-(2-methylpyridin-3-yl)-2,4,12,13-tetrahydro-11H-5,7-(azenometheno)dipyrazolo[3,4-b:5′,1′-g][1]oxa[4,6,8]triazacycloundecine]: the Kp at 1 h in series [1] (brain) is 0.9 ± 0.1. The Kp uu at 1 h in series [1] (brain) was found to be 0.37 ± 0.03. Also, the concentration at 1 h amounted to 279 ± 10 ng/g in series [1] (setting [6]) and 297 ± 29 ng/mL in series [1] (setting [7]). The IC50 was found to be 35000 pM on LRRK2 WT [2], 2500 pM on LRRK2 WT [3] and 12000 pM at LRRK2 G2019S. In series [4], the “fubrain (% free)” value came to 7.5 % free. The “fuplasma (% free)” value in series [4] came to 19.3 % free. The CLint scaled at 1 μM in series [5] is 16.8 mL/min/kg.
Take `CCc1c2c(nn1-c1cccnc1OC)OCCCn1nc(Cl)c3cnc(nc31)N2` [Example 5, 8-Chloro-3-ethyl-2-(2-methoxypyridin-3-yl)-2,4,12,13-tetrahydro-11H-5,7-(azenometheno)dipyrazolo[3,4-b:5′,1′-g][1]oxa[4,6,8]triazacycloundecine]: the Kp at 1 h in series [1] (brain) was determined as 1.9 ± 0.3. This compound also showed a Kp uu at 1 h in series [1] (brain) of 0.8 ± 0.13. The concentration at 1 h in series [1] (setting [6]) worked out at 7 ± 3 ng/g; in series [1] (setting [7]), 4 ± 0.8 ng/mL. The IC50 on LRRK2 WT [2] turned out to be 4000 pM; at LRRK2 WT [3], 410 pM; at LRRK2 G2019S it was 1400 pM. Besides, the “fubrain (% free)” value in series [4] worked out at 5.2 % free. The “fuplasma (% free)” value in series [4] is listed as 12.3 % free. In addition, the intrinsic metabolic clearance (CLint scaled) at 1 μM in series [5] is 23.2 mL/min/kg.
